Test results reported in publication PMC9837035 (Nature Communications, 2023).
pIC50: −log10 of the molar value. “And” between values parts separate entries of the source, which are not always exact repeats. Identical values can stand only once.

Legend:
[1] = tested on: γ-globin proteins in CD34+-derived cells; assay: γ-globin protein quantification by LC-MS/MS in CD34+-derived cells; type: cell-based, human
Experimental: The extraction and digestion of proteins were performed according to the method reported in a previous paper. Briefly, collected cell pellets, 120 μL of water, 12.5 μL of acetonitrile, and 12.5 μL of 1% formic acid were mixed and sonicated. The mixture was centrifuged to remove the cell debris and the supernatant was collected. Ten microliters of supernatant was reduced by dithiothreitol, alkylated with iodoacetamide, and digested with trypsin/Lys-C mix (Promega) in 50 mM ammonium bicarbonate (pH 8.0) (Sigma) at 37 °C overnight. For protein quantification analysis by LC–MS/MS, 10 pmol of stable isotope–labeled peptides (synthesized by the Support Unit for Bio-Material Analysis, RIKEN Center for Brain Science) were added to the digested sample as an internal standard. The digested sample was stored at −25 °C until analysis. The trypsinized sample was applied to an EASY-nLC 1000 liquid chromatograph (Thermo Fisher Scientific) and Q-Exactive mass spectrometer (Thermo Fisher Scientific) equipped with a nanospray ion source (Thermo Fisher Scientific). […]
Protein quantification was performed using Vanquish UHPLC (Thermo Fisher Scientific) and TSQ-Vantage EMR (Thermo Fisher Scientific) with a HESI-II ion source (Thermo Fisher Scientific) in multiple reaction monitoring (MRM) mode. […]

[2] = target: T1, G9a (Homo sapiens, UniProt Q96KQ7); assay: Kinetic analysis by ALPHA (IC50 vs H3 peptide or SAM); type: biochemical; parameters: purchased BPS Bioscience; settings: for pIC50: 3 replicates
T1 sequence (Q96KQ7 1-1210): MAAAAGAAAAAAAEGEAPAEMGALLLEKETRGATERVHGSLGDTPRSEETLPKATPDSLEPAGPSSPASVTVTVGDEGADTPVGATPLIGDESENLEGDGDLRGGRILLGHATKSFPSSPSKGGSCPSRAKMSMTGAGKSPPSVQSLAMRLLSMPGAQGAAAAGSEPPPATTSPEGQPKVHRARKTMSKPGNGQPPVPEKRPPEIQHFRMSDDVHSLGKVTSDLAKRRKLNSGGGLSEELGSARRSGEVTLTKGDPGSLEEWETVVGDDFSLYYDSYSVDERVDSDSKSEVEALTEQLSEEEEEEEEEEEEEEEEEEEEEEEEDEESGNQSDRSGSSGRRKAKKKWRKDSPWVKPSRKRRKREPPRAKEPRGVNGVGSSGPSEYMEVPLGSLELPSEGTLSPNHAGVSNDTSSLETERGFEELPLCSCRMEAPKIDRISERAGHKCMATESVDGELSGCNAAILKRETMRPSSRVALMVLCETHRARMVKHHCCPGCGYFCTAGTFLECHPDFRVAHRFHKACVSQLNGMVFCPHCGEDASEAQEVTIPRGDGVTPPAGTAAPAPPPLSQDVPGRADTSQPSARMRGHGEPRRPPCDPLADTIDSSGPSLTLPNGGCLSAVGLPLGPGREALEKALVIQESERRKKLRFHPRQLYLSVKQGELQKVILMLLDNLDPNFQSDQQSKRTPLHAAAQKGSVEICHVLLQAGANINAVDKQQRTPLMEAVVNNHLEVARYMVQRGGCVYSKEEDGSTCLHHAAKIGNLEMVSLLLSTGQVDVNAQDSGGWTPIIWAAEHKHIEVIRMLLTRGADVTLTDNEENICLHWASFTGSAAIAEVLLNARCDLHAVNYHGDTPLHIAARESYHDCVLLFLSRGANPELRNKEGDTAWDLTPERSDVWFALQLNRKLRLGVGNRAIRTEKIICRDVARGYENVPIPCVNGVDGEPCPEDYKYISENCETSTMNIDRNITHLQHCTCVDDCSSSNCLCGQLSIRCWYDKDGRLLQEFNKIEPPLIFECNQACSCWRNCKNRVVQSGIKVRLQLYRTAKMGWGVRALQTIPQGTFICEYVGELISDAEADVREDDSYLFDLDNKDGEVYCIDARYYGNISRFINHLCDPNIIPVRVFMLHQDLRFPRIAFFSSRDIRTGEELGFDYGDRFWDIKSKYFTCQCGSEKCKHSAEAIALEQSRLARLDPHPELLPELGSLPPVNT
Experimental: Kinetic analysis was measured by ALPHA. […] ALPHA profile was analyzed using Origin (OriginLab).

[3] = target: T1, G9a; assay: Radioisotope-based methyltransferase assay (selectivity); settings: 1 μM SAM
[4] = target: EZH2 (Y641F) (Homo sapiens, UniProt Q15910, Y641F); assay: as above
[5] = target: NSD2 (T1150A) (Homo sapiens, UniProt O96028, T1150A); assay: as above
[6] = target: EZH2 (Homo sapiens, UniProt Q15910); assay: biochemical
[7] = tested on: mice; assay: Mouse acute toxicity assay, survival; type: in vivo; settings: intravenous; for Number of alive mice: 2-week observation
Outline: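 Four-week-old female ICR mice received compounds intravenously in saline with 10% DMSO and 1% Tween 80; body weight and survival monitored.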

Chain of NSD2 (T1150A) (O96028 whole entry T1150A): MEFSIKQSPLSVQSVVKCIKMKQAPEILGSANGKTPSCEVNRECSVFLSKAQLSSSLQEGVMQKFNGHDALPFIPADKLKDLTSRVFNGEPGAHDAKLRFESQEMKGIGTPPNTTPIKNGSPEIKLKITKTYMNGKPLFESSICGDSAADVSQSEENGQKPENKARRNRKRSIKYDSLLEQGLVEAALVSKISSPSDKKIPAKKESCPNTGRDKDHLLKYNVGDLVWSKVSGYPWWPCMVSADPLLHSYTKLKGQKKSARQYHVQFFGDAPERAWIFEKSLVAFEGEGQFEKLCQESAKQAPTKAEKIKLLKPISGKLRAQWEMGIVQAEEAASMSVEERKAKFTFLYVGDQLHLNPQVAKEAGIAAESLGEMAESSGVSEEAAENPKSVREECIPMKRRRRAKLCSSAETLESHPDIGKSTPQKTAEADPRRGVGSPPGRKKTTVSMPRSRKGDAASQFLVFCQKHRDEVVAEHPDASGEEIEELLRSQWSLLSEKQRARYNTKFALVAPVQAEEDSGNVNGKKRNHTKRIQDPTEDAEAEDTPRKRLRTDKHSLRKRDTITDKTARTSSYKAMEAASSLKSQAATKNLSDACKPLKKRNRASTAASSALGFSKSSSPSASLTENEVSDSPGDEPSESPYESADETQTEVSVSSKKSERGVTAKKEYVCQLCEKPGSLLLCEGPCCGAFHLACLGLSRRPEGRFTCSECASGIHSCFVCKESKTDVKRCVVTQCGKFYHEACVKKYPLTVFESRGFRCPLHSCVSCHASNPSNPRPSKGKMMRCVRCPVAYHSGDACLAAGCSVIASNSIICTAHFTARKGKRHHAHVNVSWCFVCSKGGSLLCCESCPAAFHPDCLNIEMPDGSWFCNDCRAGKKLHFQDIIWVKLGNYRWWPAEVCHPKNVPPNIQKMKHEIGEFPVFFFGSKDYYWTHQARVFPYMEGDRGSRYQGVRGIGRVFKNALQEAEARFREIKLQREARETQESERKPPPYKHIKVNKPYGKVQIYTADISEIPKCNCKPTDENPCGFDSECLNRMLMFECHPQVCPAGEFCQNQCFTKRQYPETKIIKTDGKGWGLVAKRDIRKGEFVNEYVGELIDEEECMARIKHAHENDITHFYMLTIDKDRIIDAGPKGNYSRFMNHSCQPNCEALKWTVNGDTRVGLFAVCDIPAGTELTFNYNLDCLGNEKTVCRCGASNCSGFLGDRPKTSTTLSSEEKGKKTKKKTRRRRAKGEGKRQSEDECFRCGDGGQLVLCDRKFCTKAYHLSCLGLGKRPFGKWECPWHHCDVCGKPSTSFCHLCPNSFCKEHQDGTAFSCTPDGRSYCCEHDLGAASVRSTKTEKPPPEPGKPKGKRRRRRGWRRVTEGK
Chain of EZH2 (Y641F) (Q15910 whole entry Y641F): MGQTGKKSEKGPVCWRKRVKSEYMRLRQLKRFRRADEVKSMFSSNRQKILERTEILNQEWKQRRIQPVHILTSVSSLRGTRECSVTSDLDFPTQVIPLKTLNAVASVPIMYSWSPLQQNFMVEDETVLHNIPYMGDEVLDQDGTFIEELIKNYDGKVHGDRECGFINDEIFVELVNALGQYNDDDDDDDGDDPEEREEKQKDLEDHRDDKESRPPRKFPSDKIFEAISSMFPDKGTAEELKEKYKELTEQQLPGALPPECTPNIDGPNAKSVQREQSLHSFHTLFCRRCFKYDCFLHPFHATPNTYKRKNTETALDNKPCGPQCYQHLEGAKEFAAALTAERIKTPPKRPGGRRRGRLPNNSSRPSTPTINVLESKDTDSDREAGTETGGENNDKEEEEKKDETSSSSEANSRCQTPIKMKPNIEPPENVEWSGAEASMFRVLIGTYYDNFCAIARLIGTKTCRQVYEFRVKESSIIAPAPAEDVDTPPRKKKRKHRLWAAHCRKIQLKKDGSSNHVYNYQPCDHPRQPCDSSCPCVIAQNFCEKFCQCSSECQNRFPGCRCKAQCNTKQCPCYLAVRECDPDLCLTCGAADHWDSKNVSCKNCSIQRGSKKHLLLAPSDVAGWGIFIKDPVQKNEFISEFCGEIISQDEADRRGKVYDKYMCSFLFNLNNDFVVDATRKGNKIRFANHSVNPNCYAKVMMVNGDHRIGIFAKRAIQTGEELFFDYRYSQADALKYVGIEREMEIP
Chain of EZH2 (Y641F) (O75530 whole entry partner): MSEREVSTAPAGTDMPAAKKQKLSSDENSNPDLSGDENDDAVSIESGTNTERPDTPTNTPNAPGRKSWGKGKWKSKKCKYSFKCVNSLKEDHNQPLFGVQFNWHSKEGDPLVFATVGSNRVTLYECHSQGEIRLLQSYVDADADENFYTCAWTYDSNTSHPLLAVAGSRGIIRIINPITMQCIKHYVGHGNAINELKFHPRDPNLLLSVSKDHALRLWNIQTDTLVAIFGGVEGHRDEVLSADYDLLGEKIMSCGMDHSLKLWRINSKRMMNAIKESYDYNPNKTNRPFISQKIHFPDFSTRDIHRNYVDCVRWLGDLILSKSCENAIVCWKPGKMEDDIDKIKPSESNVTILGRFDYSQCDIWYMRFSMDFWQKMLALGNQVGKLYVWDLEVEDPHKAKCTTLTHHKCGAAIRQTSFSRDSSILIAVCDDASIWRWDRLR
Chain of EZH2 (Y641F) (Q15022 whole entry partner): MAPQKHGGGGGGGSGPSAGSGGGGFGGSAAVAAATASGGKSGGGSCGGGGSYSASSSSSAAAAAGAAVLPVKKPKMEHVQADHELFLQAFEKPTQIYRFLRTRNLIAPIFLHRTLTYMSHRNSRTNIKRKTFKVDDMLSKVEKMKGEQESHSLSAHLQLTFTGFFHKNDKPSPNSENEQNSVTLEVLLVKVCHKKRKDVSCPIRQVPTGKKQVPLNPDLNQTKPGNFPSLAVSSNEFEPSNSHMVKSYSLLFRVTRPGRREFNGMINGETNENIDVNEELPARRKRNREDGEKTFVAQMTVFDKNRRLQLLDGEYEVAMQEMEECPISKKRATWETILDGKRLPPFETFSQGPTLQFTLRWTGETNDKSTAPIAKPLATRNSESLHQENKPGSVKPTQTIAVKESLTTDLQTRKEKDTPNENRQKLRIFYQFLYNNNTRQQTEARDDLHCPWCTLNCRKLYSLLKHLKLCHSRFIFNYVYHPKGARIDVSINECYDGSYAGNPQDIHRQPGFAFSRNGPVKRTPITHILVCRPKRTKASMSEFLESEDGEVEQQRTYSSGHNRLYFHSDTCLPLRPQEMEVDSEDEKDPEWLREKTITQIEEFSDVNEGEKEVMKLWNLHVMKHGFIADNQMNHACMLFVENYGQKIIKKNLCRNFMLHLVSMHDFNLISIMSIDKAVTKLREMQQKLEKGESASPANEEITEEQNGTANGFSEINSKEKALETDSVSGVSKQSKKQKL
Chain of EZH2 (Y641F) (Q09028 whole entry partner): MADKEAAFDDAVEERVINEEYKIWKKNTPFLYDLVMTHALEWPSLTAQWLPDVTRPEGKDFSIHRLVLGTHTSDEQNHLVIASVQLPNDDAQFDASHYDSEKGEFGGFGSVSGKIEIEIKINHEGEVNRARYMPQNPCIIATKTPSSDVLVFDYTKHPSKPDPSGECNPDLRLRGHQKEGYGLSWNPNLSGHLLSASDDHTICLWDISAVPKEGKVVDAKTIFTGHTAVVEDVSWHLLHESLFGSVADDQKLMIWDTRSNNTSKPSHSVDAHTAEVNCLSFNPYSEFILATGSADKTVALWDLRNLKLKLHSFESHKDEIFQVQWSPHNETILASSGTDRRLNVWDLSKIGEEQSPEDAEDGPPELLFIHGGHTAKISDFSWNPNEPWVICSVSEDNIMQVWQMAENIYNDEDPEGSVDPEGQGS
Chain of EZH2 (Y641F) (Q6ZN18 whole entry partner): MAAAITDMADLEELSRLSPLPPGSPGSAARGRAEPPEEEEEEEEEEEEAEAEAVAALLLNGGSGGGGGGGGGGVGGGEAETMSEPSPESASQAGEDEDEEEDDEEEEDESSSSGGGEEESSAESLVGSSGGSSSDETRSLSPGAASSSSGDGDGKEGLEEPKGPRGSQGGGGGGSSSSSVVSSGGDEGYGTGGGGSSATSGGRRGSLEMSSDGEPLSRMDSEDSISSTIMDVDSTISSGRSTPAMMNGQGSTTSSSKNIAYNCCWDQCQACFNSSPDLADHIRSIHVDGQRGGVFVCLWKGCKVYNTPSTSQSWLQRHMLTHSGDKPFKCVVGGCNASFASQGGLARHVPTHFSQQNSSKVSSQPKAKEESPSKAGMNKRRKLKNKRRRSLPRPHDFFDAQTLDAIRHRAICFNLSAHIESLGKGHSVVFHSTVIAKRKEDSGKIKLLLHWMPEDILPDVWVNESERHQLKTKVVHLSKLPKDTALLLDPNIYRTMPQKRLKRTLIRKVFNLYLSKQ
Chain of EZH2 (Q15910 whole entry): as the sequence (Q15910 whole entry Y641F) above, with F641Y counted along it
Chain of EZH2 (O75530 whole entry partner): as the sequence (O75530 whole entry partner) above
Chain of EZH2 (Q15022 whole entry partner): as the sequence (Q15022 whole entry partner) above
Chain of EZH2 (Q09028 whole entry partner): as the sequence (Q09028 whole entry partner) above
Chain of EZH2 (Q6ZN18 whole entry partner): as the sequence (Q6ZN18 whole entry partner) above

NC(=O)NO [Hydroxyurea, hydroxyurea]
Percentage of γ-globin proteins relative to total β-like globin proteins ([1]; day 11, 10 μM): 8.1% and 10.3%
Percentage of γ-globin proteins relative to total β-like globin proteins ([1]; day 11, 50 μM): 8.1% and 10.3% and 14.3%

Cc1c(C(=O)NC(CCC2CC2)C(=O)Nc2ccc(C#N)cc2)[nH]c2c1C(=O)CC(C)(C)C2 (stereo not drawn) [RK-701]
mode of inhibition, SAM [2]: uncompetitive inhibition with respect to SAM
mode of inhibition, histone H3 peptide [2]: histone H3 substrate-competitive inhibitor
pIC50 ([2]; H3(1-21)-biotin 6.25 nM): 8.01 and 8.02 and 8.05
pIC50 ([2]; H3(1-21)-biotin 12.5 nM): 8.08 and 7.87 and 7.98
pIC50 ([2]; H3(1-21)-biotin 25 nM): 7.93 and 7.74 and 7.76
pIC50 ([2]; H3(1-21)-biotin 50 nM): 7.69 and 7.49 and 7.58
pIC50 ([2]; H3(1-21)-biotin 100 nM): 7.46 and 7.50
pIC50 ([2]; SAM 0.47 µM): 6.81 and 6.83 and 6.82
pIC50 ([2]; SAM 0.94 µM): 7.19 and 7.01 and 7.37
pIC50 ([2]; SAM 1.88 µM): 7.51 and 7.24 and 7.61
pIC50 ([2]; SAM 3.75 µM): 7.63 and 7.40 and 7.68
pIC50 ([2]; SAM 7.5 µM): 7.56 and 7.41 and 7.93
pIC50 ([2]; SAM 15 µM): 7.60 and 7.43 and 7.89
pIC50 [3]: 7.64
pIC50 [4]: < 4.00
pIC50 [5]: < 4.00
pIC50 [6]: < 4.00
Number of alive mice ([7]; 12.5 mg/kg): 3/3
Number of alive mice ([7]; 25 mg/kg): 3/3
Number of alive mice ([7]; 50 mg/kg): 3/3
Number of alive mice ([7]; 100 mg/kg): 3/3
acute toxicity, survival ([7]; mice): survived for two weeks
